{"source": "patent EP0361645B1", "about": "“Organic hydrazine derivatives for pharmaceutical use” (ROHM AND HAAS COMPANY, priority 1988, dated 1990)", "key": {"helminths": {"system": "helminths", "conditions": "stated as known; cited from earlier work"}, "Kr cells": {"system": "Kr cells", "experiment": "Process elaboration and inhibition of cell proliferation in Kr cells", "assay_type": "cell-based, Drosophila", "conditions": "Drosophila melanogaster; 48 hours incubation; initial cell density 2 X 10^6 cells/ml", "method": "The invention will now be further described by way of exemplification and by reference to the drawings in which; • Figure 1. Both 20-hydroxyecdysone and Example No. 3 induce process elaboration (A) and inhibition of cell proliferation (B) in Kr cells in a dose-dependent manner. Initial cell density was 2 X 10^6 cells/ml; after incubation of 1 ml aliquots of the cells with the compound for 48 hours the cells were triturated gently and the percentage of cells responding (with processes longer than approximately 17 um, see Cherbas et al. 189 Wilhelm Roux's Arch. 1 (1980)) and total cell density was determined by hemocytom- eter counting, relative to ethanol (1 ul)-treated controls. Determinations were in triplicate for each dose. […] Induction of acetylcholinesterase by varying concentrations of 20-hydroxyecdysone and Example No. 3. Kr cells at an initial density of 3 X 10^6 cells/ml (10 ml per sample) were incubated with the agonist for three days. After harvesting, by centrifugation at 3000 X g, the cell pellets were washed with Robb's Drosophila saline (18, 2 X 5 ml) at 4 ° C, then lysed by sonication in 1 ml of phosphate buffer (pH 7.4, I = 0.1 M) containing 0.5 M NaCI, 0.25 M EDTA and 0.5% TRITON? X-100. See Cherbas, 197 Science 275 (1977). Triton is a registered trademark of Rohm and Haas Company for a alkylaryl polyoxyethylene glycol surfactant. After centrifugation at 16,000 X g, the supernatants were assayed for acetylcholinesterase activity by an adaptation of the method of Ellman et al., 7 Biochem. Pharmacol. 88 (1961), by subtracting out any 412 nm absorbance observed in incubations in the presence of 2 X 10-5 eserine sulfate. Thus reaction mixtures contained 50 ul of enzyme extract, 20 ul eserine (blank tubes only) and 1.0 ml of 0.5 mM acetylthiocholine, 0.3 mM dithiobisnitrobenzoic acid in phosphate buffer (pH 7.4, I = 0.1 M). Incubations were at 25 ° C for two hours; reactions in active tubes were terminated by addition of eserine. Absorbance at 412 nm was then measured. Protein concentration in extracts was measured by the Biorad method. […] Scatchard plot of ^3H-ponasterone A binding to Kr cell cytosolic receptor extracts in the presence of differing concentrations of Example No. 3. Cytosolic extract preparation and ecdysteroid receptor assays were essentially as described in Sage, 111 Meth. in Enzymol. 458 (1985). Example No. 3 was added in 1 ul DMSO to 50 ul of radioligand in 10 mM Tris buffer (pH 7.2) and 50 ul of undiluted cytosol extract. […] Ecdysteroid titers were measured by a radioimmunoassay adapted from Warren et al., 40 Experientia 393 (1984) with Protein A-Staph. aureus suspension (Sigma) used as the reagent to separate bound from free ligand. […]"}, "antiecdysone antiserum": {"system": "antiecdysone antiserum", "experiment": "Binding by antiecdysone antiserum (radioimmunoassay)", "method": "The invention will now be further described by way of exemplification and by reference to the drawings in which; • Figure 1. Both 20-hydroxyecdysone and Example No. 3 induce process elaboration (A) and inhibition of cell proliferation (B) in Kr cells in a dose-dependent manner. Initial cell density was 2 X 10^6 cells/ml; after incubation of 1 ml aliquots of the cells with the compound for 48 hours the cells were triturated gently and the percentage of cells responding (with processes longer than approximately 17 um, see Cherbas et al. 189 Wilhelm Roux's Arch. 1 (1980)) and total cell density was determined by hemocytom- eter counting, relative to ethanol (1 ul)-treated controls. Determinations were in triplicate for each dose. […] Induction of acetylcholinesterase by varying concentrations of 20-hydroxyecdysone and Example No. 3. Kr cells at an initial density of 3 X 10^6 cells/ml (10 ml per sample) were incubated with the agonist for three days. After harvesting, by centrifugation at 3000 X g, the cell pellets were washed with Robb's Drosophila saline (18, 2 X 5 ml) at 4 ° C, then lysed by sonication in 1 ml of phosphate buffer (pH 7.4, I = 0.1 M) containing 0.5 M NaCI, 0.25 M EDTA and 0.5% TRITON? X-100. See Cherbas, 197 Science 275 (1977). Triton is a registered trademark of Rohm and Haas Company for a alkylaryl polyoxyethylene glycol surfactant. After centrifugation at 16,000 X g, the supernatants were assayed for acetylcholinesterase activity by an adaptation of the method of Ellman et al., 7 Biochem. Pharmacol. 88 (1961), by subtracting out any 412 nm absorbance observed in incubations in the presence of 2 X 10-5 eserine sulfate. […] Absorbance at 412 nm was then measured. Protein concentration in extracts was measured by the Biorad method. […] Ecdysteroid titers were measured by a radioimmunoassay adapted from Warren et al., 40 Experientia 393 (1984) with Protein A-Staph. aureus suspension (Sigma) used as the reagent to separate bound from free ligand. […]"}, "[1]": {"system": "ligated M. sexta abdomens (L5D3)", "experiment": "Onset of pupal development in ligated L5D3 M. sexta abdomens (injection)", "assay_type": "in vivo", "conditions": "injected into L5D3 abdomens, events related to pupal formation", "method": "(§1) L4D1 means fourth instar, first day after molting. L4 animals 36 hours after ecdysis were ligated, decapitated and next day injected with varying doses of compound in 1 - 2 ul DMSO. They were scored as follows: 0 = normal L4 abdomens with no L5 crochets or spiracle apolysis; 1 = exposed dorsal vessel (response to moderate levels of molting hormone in the presence of low JH levels); 2 = L5 crochets formed but no spiracle apolysis; 3 = L5 crochets formed and mild spiracle apolysis; 4 = strong molting response, both L5 crochets and spiracle cuticle synthesized. These methods are an adaptation of the method of J. W. Truman, L. M. Riddiford, L. Safranek, 39 Dev. Biol 247 (1974). Injection and scoring of L5D3 abdomens (weighing 6.5 - 7.5 g) are also adaptations of previous methods in H. F. Nijhout, 22 J. Insect Physiol. 453 (1976). […] Animals were held over moistened filter paper at 25 ° C and were scored after three days. […] For both L4 and L5 abdomens, 50% effective doses were determined by plotting the mean score for all individuals vs. dose, then determining the dose which gives a score of 2.0 and 1.5 respectively. Intact L5D0 hornworms were either allowed to feed on treated commercial black cutworm diet or injected into a proleg and scored after 48 hours. The 50% effective dose was calculated by plotting percentage of the population bearing a prematurely apolysed head capsule vs. dose. […]"}, "[2]": {"system": "ligated M. sexta abdomens (L4D1)", "experiment": "Onset of molting in ligated L4D1 M. sexta abdomens (injection)", "assay_type": "in vivo", "conditions": "injected into L4D1 abdomens", "method": "as §1"}, "[3]": {"experiment": "Hemolymph titers of 14C-Example No. 3 in L5 hornworms after feeding", "assay_type": "in vivo, M. sexta"}}}
{"smiles": "CC(C)(O)CC[C@@H](O)[C@](C)(O)[C@H]1CC[C@@]2(O)C3=CC(=O)[C@@H]4C[C@@H](O)[C@@H](O)C[C@]4(C)[C@H]3CC[C@]12C", "note": "[20-hydroxyecdysone, reference compound]", "values": [{"measurement": "control of helminths", "setting": "helminths", "result": "controls helminths"}, {"measurement": "EC50", "setting": "Kr cells", "result": 35, "unit": "nM"}]}
{"smiles": "CC(C)(C)N(NC(=O)c1ccccc1)C(=O)c1ccccc1", "note": "[Example No. 3, N'-t-butyl-N,N'-dibenzoylhydrazine]", "values": [{"measurement": "binding by antiecdysone antiserum", "setting": "antiecdysone antiserum; 1 X 10^-4 M", "result": "not significantly bound"}, {"measurement": "fold lower binding affinity than 20-hydroxyecdysone", "setting": "antiecdysone antiserum; antiecdysone antiserum", "result": "> 3125", "unit": "fold"}, {"measurement": "times as potent as 20-hydroxyecdysone", "setting": "[1]", "result": 30, "unit": "times"}, {"measurement": "fold more potent than 20-hydroxyecdysone", "setting": "[2]", "result": 30, "unit": "fold"}, {"measurement": "peak hemolymph concentration relative to concentrations required for a 50% response in Kr cell process elaboration and ^3H-ponasterone A displacement", "setting": "[3]; 10 ug/g oral dose", "result": "3 to 5", "unit": "fold"}, {"measurement": "concentration at 36 h", "setting": "[3]; tobacco hornworm, hemolymph, po, 10 ug/g in diet, for at least 36 hours thereafter, read-out: residual hemolymph level", "result": "~3", "unit": "µM"}, {"measurement": "Cmax at 6 h", "setting": "[3]; tobacco hornworm, hemolymph, po, L5D0 larvae, 10 ug/g in diet, at six hours after the initiation of feeding, read-out: peak hemolymph concentration", "result": 16, "unit": "µM"}, {"measurement": "EC50", "setting": "Kr cells", "result": 4800, "unit": "nM"}]}
